{"source": "patent US6692743B1", "about": "“Apoptosis of naive human NK cells by crosslinking of their FcγRIIIa molecules with a rat IgG2b (LO-CD2a/BTI-322) or its IgG1 humanized monoclonal antibody” (Universite Catholique de Louvain, priority 1998, dated 2004)", "note": "Numbered stars: 1 amine (or outer) side, 2 acyl side, 3 side chain; on linkers, the order of the positions; unused ones are H or OH. Bridge positions count the residues as written; N and C are the ends. Square brackets hold non-standard residues; d marks the D form. Peptide text beside a SMILES is read from it. I, II: the chains in the order shown. Actinocin(9to1) = Cc1c2oc3c(C)ccc(C(=O)[*:1])c3nc-2c(C(=O)[*:2])c(N)c1=O; NMeV = CN[C@H](C(=O)O)C(C)C; Sar = CNCC(=O)O", "data": [{"test_system": "freshly isolated NK cells", "experiment": "Effect of different inhibitors on LO-CD2a mediated NK apoptosis (PI, flow cytometry)", "assay_type": "cell-based, human", "details": "3 h pre-incubation with inhibitor, then 3 hours with LO-CD2a; 5 donors", "method": "Effect of different inhibitors on LO-CD2a mediated NK apoptosis. 100 ul of freshly isolated NK cells (10^6/ml) were pre-incubated for 3 h at 37° C. in a 96 well plate with EGTA (20 mM), staurosporin (250 nM), quinacrine ([…]), cyclosporin A ([…]), FK506 ([…]), wortmannin (500 ng/ml), concanamycin A ([…]), cytochalasine D (1 mg/ml), actinomycin) (500 ng/ml final concentration), NOK-1 (25 mg/ml) or medium alone. After incubation for 3 hours with LO-CD2a ([…] final concentration) propidium iodide was added and cell mortality was analysed by flow cytometry.", "values": [{"compound": "CCN(CC)CCCC(C)Nc1c2ccc(Cl)cc2nc2ccc(OC)cc12", "note": "(centres unmarked) [quinacrine, Quinacrine]", "inhibition of LO-CD2a mediated NK apoptosis (in words)": "completely inhibited"}, {"compound": "Cyclosporin A", "inhibition of LO-CD2a mediated NK apoptosis (in words)": "partially inhibited"}, {"compound": "C/C=C/[C@H]1O[C@@](O)([C@@H](C)[C@H](O)[C@H](C)[C@H]2OC(=O)/C(OC)=C/C(C)=C/[C@@H](C)[C@@H](O)[C@@H](CC)[C@@H](O)[C@H](C)C/C(C)=C/C=C/[C@@H]2OC)C[C@@H](O[C@H]2C[C@@H](O)[C@H](OC(N)=O)[C@@H](C)O2)[C@@H]1C", "note": "[concanamycin A, Concanamycin A]", "inhibition of LO-CD2a mediated NK apoptosis (in words)": "failed to inhibit apoptosis"}, {"compound": "Cc1c2oc3c(C)ccc(C(=O)N[C@@H]4C(=O)N[C@H](C(C)C)C(=O)N5CCC[C@H]5C(=O)N(C)CC(=O)N(C)[C@@H](C(C)C)C(=O)O[C@@H]4C)c3nc-2c(C(=O)N[C@@H]2C(=O)N[C@H](C(C)C)C(=O)N3CCC[C@H]3C(=O)N(C)CC(=O)N(C)[C@@H](C(C)C)C(=O)O[C@@H]2C)c(N)c1=O", "note": "[actinomycin D, Actinomycin D] (I: T[dV]P[Sar][NMeV] / II: T[dV]P[Sar][NMeV]; ester I:1-I:C, II:1-II:C; linker I:N-II:N via Actinocin(9to1))", "inhibition of LO-CD2a mediated NK apoptosis (in words)": "did not have any blocking effect"}, {"compound": "O=C(O)CN(CCOCCOCCN(CC(=O)O)CC(=O)O)CC(=O)O", "note": "[EGTA]", "inhibition of LO-CD2a mediated NK apoptosis (in words)": "completely inhibited"}]}]}
